These results are taken from PubChem BioAssay (NCI).

Holding throughout (assay): NCI anticancer screen, dose series, 48 h
Assay [1] deals with MDA-MB-435.
In assay [2] the test system is SK-MEL-5 melanoma.
The subject of assay [3] is LOX IMVI melanoma.
The test system of assay [4] is HCT-15 colon.
Assay [5] concerns OVCAR-8 ovarian.
In assay [6] the test system is SF-295 CNS.
Assay [7] has as its system MCF7 breast.
The test system of assay [8] is ACHN renal.
Assay [9] deals with HS 578T breast.
Assay [10] deals with EKVX NSCLC.
The test system of assay [11] is NCI/ADR-RES ovarian.
The test system of assay [12] is HOP-62 NSCLC.
Assay [13] has as its system HL-60(TB) leukemia.
In assay [14] the test system is K-562 leukemia.
Assay [15] concerns UACC-62 melanoma.
The test system of assay [16] is SK-OV-3 ovarian.
Assay [17] relates to T-47D breast.
In assay [18] the test system is M14 melanoma.
Assay [19] has as its system HCC-2998 colon.
The test system of assay [20] is MDA-MB-231 breast.

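Following 48 hours of exposure in 96-well plates, responses at five concentrations were used to interpolate endpoints linearly. TGI denotes the concentration required for complete inhibition of growth.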

Consider `CCCCS(=O)CCC(N)P(=O)(O)O` (configuration not stated), for which the TGI in assay [1], in [2], in assay [3], in assay [4], in assay [5] and in [6] was more than 100 µM in each case. Further, the TGI in assay [7], in assay [8], in assay [9], in assay [10], in [11] and in assay [12] was more than 100 µM throughout. Moreover, the TGI in assay [13], in [14], in [15], in assay [16], in assay [17] and in assay [18] was more than 100 µM each time.
Turning to `COc1cc(/C=C2\C[C@H]3[C@@H]4CCc5cc(O)ccc5[C@H]4CC[C@]3(C)C2=O)cc(OC)c1OC`, the TGI in [1] was 48.6 µM; in assay [2], 38.4 µM; in assay [3] it was 30.7 µM; in [4] it was more than 100 µM; in [19], 35.9 µM; in assay [5] it was 30.1 µM. The TGI was 27.4 µM in [6]; more than 100 µM in [7]; 38.7 µM in [8]; 23.7 µM in assay [10]; 39.5 µM in assay [11]; 27.9 µM in [12]. Moreover, the TGI in assay [14] is 24.8 µM; in assay [15] it was 52.2 µM; in assay [16], 48.3 µM; in assay [20] it was 43.9 µM; in assay [17], 38.5 µM; in [18], 37.7 µM.
Take `CCCCC1=NNC(=O)C1`: the TGI in assay [1], in assay [2], in assay [4], in [19], in [5] and in assay [6] was more than 100 µM in each case. The TGI in assay [7], in assay [8], in assay [9], in assay [10], in assay [11] and in assay [12] was more than 100 µM each time. Further, the TGI in assay [13], in assay [15], in assay [16], in assay [20], in assay [17] and in assay [18] was more than 100 µM throughout.
Take `COC(=O)c1ccc(C(=O)NC(Cc2ccc(Oc3cc(CC(NC(=O)c4ccccc4C(=O)OC)C(=O)OC)ccc3OC)cc2)C(=O)OC)cc1` (configuration not stated): the TGI in [1], in assay [3], in assay [4], in assay [19], in assay [5] and in assay [6] was more than 100 µM each time. Besides, the TGI in [7] is more than 100 µM; in [8], more than 100 µM; in assay [9], 39.3 µM; in assay [10] it was more than 100 µM; in assay [11], more than 100 µM; in assay [12], more than 100 µM. Further, the TGI in assay [13], in [14], in assay [16], in assay [17] and in [18] was more than 100 µM in each case.
With `CC(C)(Br)C(Br)CCC1(C2CO2)CO1` (configuration not stated), the TGI in assay [1], in assay [2], in assay [4], in assay [19], in [5] and in assay [6] was more than 5 µM each time. The TGI in assay [7], in assay [8], in [9], in assay [10], in assay [11] and in assay [12] was more than 5 µM each time. Also, the TGI in assay [14], in assay [16], in [20], in assay [17] and in assay [18] was more than 5 µM throughout.
Consider `CN(C(=O)C1=CCC2(CC1)OCCO2)c1ccccc1OS(=O)(=O)C(F)(F)F`, for which the TGI in assay [1], in [2], in assay [3], in [4], in assay [19] and in assay [5] was more than 100 µM throughout. Also, the TGI in assay [6], in assay [7], in assay [8], in assay [10], in assay [11] and in assay [12] was more than 100 µM in each case. For the same compound, the TGI in [13], in [14], in [15], in assay [16], in assay [20] and in assay [17] was more than 100 µM in each case. In assay [18], this compound displayed a TGI of more than 100 µM.
In the case of `COc1cccc2c1OC(c1ccc(Cl)cc1)C([N+](=O)[O-])=C2` (configuration not stated), the TGI in [1] stood at 8.68 µM; in assay [2], 2.95 µM; in assay [3], 2.71 µM; in assay [4] it was 10.8 µM; in assay [5] it was 10.2 µM; in assay [6] it was 13.4 µM. Further, the TGI is 3.28 µM in assay [8]; 13.4 µM in assay [9]; 24.2 µM in [10]; 39.5 µM in [11]; 4.89 µM in [12]; more than 100 µM in assay [13]. The TGI in [14] came to 24.3 µM; in [15], 10.4 µM; in [16], 13.6 µM; in [20] it was 13.8 µM; in assay [17], 9.13 µM; in [18], 2.57 µM.
As to `CC(=O)Nc1ccc(N2C(=O)/C(=C\c3cccc(Oc4ccccc4)c3)S(=O)(=O)C2c2ccccc2)cc1` (configuration not stated), the TGI in [1], in [2], in assay [3], in assay [4], in assay [19] and in [5] was more than 100 µM each time. For the same compound, the TGI in assay [6], in assay [7], in [8], in assay [10], in [11] and in [12] was more than 100 µM throughout. For the same compound, the TGI in assay [13] was 56.6 µM; in assay [14], more than 100 µM; in [15], more than 100 µM; in assay [16], more than 100 µM; in [20], more than 100 µM; in assay [17], more than 100 µM. This compound returned a TGI in assay [18] of more than 100 µM.
Turning to `Nc1ccc2c(c1)N(C(=O)c1cc3cc(NC(=O)c4cc5ccccc5o4)ccc3[nH]1)CC2CCl` (configuration not stated), the TGI in [1] was 0.512 µM; in [3] it was more than 100 µM; in assay [4], more than 100 µM; in assay [5], 1.45 µM; in assay [7], 2.38 µM; in assay [8], 11.6 µM. The TGI in assay [9] was 0.696 µM; in assay [11], 0.338 µM; in [12], 0.804 µM; in assay [13] it was more than 100 µM; in assay [15], 0.794 µM; in assay [16] it was more than 33.4 µM. The same compound displayed a TGI in [17] of 0.683 µM.
Turning to `CC(=O)Nc1ccc(C(=O)NN2C(=O)CSC2c2ccc([N+](=O)[O-])cc2)cc1` (configuration not stated), the TGI in [1], in assay [2], in [4], in assay [19], in assay [5] and in assay [6] was more than 100 µM each time. In addition, the TGI in [7], in assay [8], in assay [9], in [10], in assay [11] and in assay [12] was more than 100 µM in each case. The TGI in assay [14], in [15], in assay [16], in [20], in assay [17] and in [18] was more than 100 µM in each case.
As to `CCCCN(CCCC)CC(O)c1cc(-c2ccc(C(F)(F)F)cc2)nc(-c2ccc(C(F)(F)F)cc2)c1` (configuration not stated), the TGI in assay [1] was more than 100 µM; in assay [3] it was more than 100 µM; in assay [4], more than 100 µM; in assay [19] it was 65.6 µM; in assay [5], more than 100 µM; in assay [6] it was more than 100 µM. The TGI in assay [8], in assay [10], in [11], in assay [12], in assay [13] and in assay [14] was more than 100 µM throughout. The TGI in assay [15], in [16], in assay [20], in assay [17] and in assay [18] was more than 100 µM in each case.
For `CC(C)(C)[Si](C)(C)OCC1OC(n2ccc(N)nc2=O)C(O[Si](C)(C)C(C)(C)C)C1O[Si](C)(C)C(C)(C)C` (configuration not stated), the TGI in [2] stood at 3.43 µM; in assay [3], 3.23 µM; in [4] it was 5.25 µM; in [5], 5.68 µM; in assay [6], 3.75 µM; in [7] it was 5.33 µM. The TGI in assay [8] is 3.21 µM; in assay [9], 7.89 µM; in [10], 9.83 µM; in assay [11], more than 100 µM; in assay [12], 4.85 µM; in assay [15], 3.64 µM. The TGI in assay [16] amounted to 6.36 µM; in [20], 22.7 µM; in [17] it was 11.6 µM; in [18], 3.24 µM.
For `O=C(C=P(c1ccccc1)(c1ccccc1)c1ccccc1)c1ccc(-c2cccc([N+](=O)[O-])c2)s1`, the TGI in assay [1] is more than 100 µM; in assay [2] it was 74.2 µM; in assay [3], more than 100 µM; in assay [4], more than 100 µM; in [19] it was more than 100 µM; in [5], more than 100 µM. In addition, the TGI in assay [6], in assay [7], in assay [8], in assay [9], in assay [10] and in assay [11] was more than 100 µM in each case. The TGI was more than 100 µM in assay [12]; 59.6 µM in assay [13]; more than 100 µM in assay [14]; more than 100 µM in [15]; more than 100 µM in [16]; more than 100 µM in assay [20]. The TGI in [18] is more than 100 µM.
As for `COc1ccc(N2C(=O)C(=O)N(c3ccccc3[N+](=O)[O-])C2=S)cc1`, the TGI is 88.2 µM in [1]; 32.5 µM in assay [2]; 32.4 µM in assay [3]; 40.5 µM in [4]; more than 100 µM in assay [19]; 44.9 µM in assay [5]. Also, the TGI was more than 100 µM in assay [6]; 74.8 µM in assay [8]; 84 µM in [9]; more than 100 µM in assay [10]; 64.2 µM in assay [11]; more than 100 µM in [12]. Further, the TGI in [13] is more than 100 µM; in [14] it was more than 100 µM; in assay [15], 32.5 µM; in assay [16], 86.1 µM; in [20] it was more than 100 µM; in assay [17] it was 74.4 µM.
In the case of `NC1CC(=O)c2c(Br)csc21` (configuration not stated), the TGI in assay [1] was 66.3 µM; in assay [2] it was more than 100 µM; in assay [4], more than 100 µM; in assay [19], 44.8 µM; in assay [5], more than 100 µM; in assay [7], more than 100 µM. Moreover, the TGI is more than 100 µM in assay [8]; more than 100 µM in assay [10]; more than 100 µM in [11]; more than 100 µM in assay [12]; 81.9 µM in [13]; more than 100 µM in assay [14]. Further, the TGI is 58.7 µM in assay [15]; more than 100 µM in assay [16]; more than 100 µM in [20]; more than 100 µM in assay [17]; more than 100 µM in assay [18].
